The values below come from patent publication US20160369258A1, “RESTRICTING NUCLEAR PROTEIN TO SPECIFIC PHASES OF THE CELL CYCLE” (UNIVERSITY OF WASHINGTON, priority 2014, published 2016).

Peptide text beside a SMILES is read from it. * marks the point of attachment. Cbz = O=C(OCc1ccccc1)*

One data set has as its system AID-mCherry. Nature of the data set: HCS microscopy of AID-mCherry subcellular distribution after LMB / MG132 treatment. The class given is cell-based, human. Particulars: for cytoplasmic AID-mCherry signal, response to treatment / nuclear AID-mCherry signal, increase relative to untreated cells: Ramos AID-mCherry transductants, LMB 50 ng/ml, MG132 50 μM; for nuclear AID-mCherry signal, increase relative to untreated cells: 0-4 hr. As for the experimental part:
We analyzed subcellular distribution of AID in the human B cell line, Ramos, transduced with a lentiviral construct expressing human AID fused to the mCherry fluorescent protein at the C-terminus. Ramos B cells express endogenous AID and actively diversify their Ig genes, so the pathways that regulate and respond to damage by AID are intact. Cells were analyzed by high content screening (HCS) microscopy (43), a […] approach that automatically quantifies signals per unit area (pixels) in each compartment of each cell (FIG. 1A). […] The cytoplasmic signal was unaffected by MG132 treatment, but diminished upon treatment with LMB or LMB+MG132, paralleling the increase in nuclear signal.
The human Burkitt lymphoma cell line, Ramos, was cultured in supplemented RPMI 1640 (Gibco), which contained 10% FBS, 2 mM L-glutamine, penicillin/streptomycin, 1× non-essential amino acids (Gibco), 1 mM sodium pyruvate, and 10 mM HEPES. Lentiviral transductions used 2×10^5 cells cultured in medium containing 8 μg/ml of polybrene. Following transduction, cells were cultured for 3-4 days and these recent transductants then sorted for mCherry+ to enrich for transduced cells, typically constituting 0.1-10% of the population. Cells were treated with leptomycin B (LMB; LC Laboratories) at 50 ng/ml and MG132 (Z-Leu-Leu-Leu-aldehyde; Sigma-Aldrich) at 50 μM. Viable cells were counted after trypan blue staining. Cell viability was confirmed by CellTiter-Glo® Luminescent Cell Viability Assay (Promega).
Cells were fixed in 3.7% formaldehyde at a density of 2×10^6 cells/ml and stained with whole cell stain (HCS CellMask, Invitrogen) and DAPI (0.2 μg/ml). Fixed cells were then washed, resuspended in PBS and spun down in a 96-well μclear microplate (Greiner Bio One) for imaging. Cells were imaged by Thermo Scientific ArrayScan VTI HCS reader, analyzing 3000-6000 cells in each treatment group. Cells with very low or very high mCherry signals were eliminated, gating based on the mock transduction control (low) and eliminating cells with signals more than 5 SD from the mean (high). The HCS Colocalization BioApplication protocol was used to determine nuclear and whole cell boundaries in individual cells as defined by DAPI and HCS CellMask, respectively, thereby defining the cytoplasmic region as the region between nuclear and whole cell boundaries. The average signal in the nuclear and cytoplasmic compartments was determined in individual cells by measuring the total intensity of mCherry signal divided by area within each compartment. The ratio of nuclear to cytoplasmic signal (N/C) was calculated as the ratio of the average signals of nuclear and cytoplasmic mCherry.
G1, S, and G2/M phase cells were distinguished by ranking DNA content as determined by total DAPI signal, and specific fractions of the population assigned to G1, S and G2/M phases (FIG. 16A). HCS results were expressed in terms of average signal, to ensure independence of cell size, which increases during cell cycle (FIG. 16).

The test system of another data set is Ramos B cells. Nature of the data set: Flow cytometry of cell cycle profile and fluorescent signal. Particulars: up to 4 hr of culture; Ramos AID-mCherry transductants. Format: cell-based, human.

Experimental for Ramos B cells: To determine cell cycle distribution, cells were fixed, permeabilized with 0.5% Triton X-100, stained with DAPI (2 μg/ml) and analyzed by FACS.

With `CCC(=C/[C@H](C)C/C=C/C(C)=C/[C@@H](C)C(=O)[C@@H](C)[C@H](O)[C@@H](C)C/C(C)=C/C(=O)O)/C=C/[C@@H]1OC(=O)C=C[C@@H]1C` [LMB, leptomycin B], in the data set with AID-mCherry, the “cytoplasmic AID-mCherry signal, response to treatment” value is “diminished” and the “nuclear AID-mCherry signal, increase relative to untreated cells” value is listed as 1.5 fold. Further, the “drop of cytoplasmic AID-mCherry signal” value in the data set with AID-mCherry (all stages of cell cycle (G1, S, G2/M)) came out at 50%. Moreover, the “N/C ratio of AID-mCherry signal” value in the data set with AID-mCherry (representative cell, 0.5 hr LMB (untreated 0.80)) was 1.34. The “effect of treatment on cell cycle” value in the data set with Ramos B cells is on record as “not perturbed significantly”.

In the case of `CC(C)C[C@@H](C=O)NC(=O)[C@H](CC(C)C)NC(=O)[C@H](CC(C)C)NC(=O)OCc1ccccc1` [MG132, Z-Leu-Leu-Leu-aldehyde] (Cbz-Leu-Leu-Leu-aldehyde), in the data set on AID-mCherry, the “cytoplasmic AID-mCherry signal, response to treatment” value is reported as “unaffected” and the “nuclear AID-mCherry signal, increase relative to untreated cells” value is given as “unaffected”. The “effect on nuclear or cytoplasmic AID-mCherry signals” value in the data set on AID-mCherry (any phase of cell cycle) is “little effect”. For the same compound, the “effect of treatment on cell cycle” value with Ramos B cells was “not perturbed significantly”.
